IC50 and Selectivity data for five compounds are collected here from ChEMBL document CHEMBL1127403, “L-N6-(1-iminoethyl)lysine: a selective inhibitor of inducible nitric oxide synthase” (J Med Chem, 1994).

The target of one assay is Nitric oxide synthase 1 (Rattus norvegicus, UniProt P29476). Description: Tested for inhibition of rat brain […] nitric oxide synthase.
The target in assay [1] is T1, Nitric oxide synthase, inducible (Mus musculus, UniProt P29477).
T1 sequence (P29477 whole entry): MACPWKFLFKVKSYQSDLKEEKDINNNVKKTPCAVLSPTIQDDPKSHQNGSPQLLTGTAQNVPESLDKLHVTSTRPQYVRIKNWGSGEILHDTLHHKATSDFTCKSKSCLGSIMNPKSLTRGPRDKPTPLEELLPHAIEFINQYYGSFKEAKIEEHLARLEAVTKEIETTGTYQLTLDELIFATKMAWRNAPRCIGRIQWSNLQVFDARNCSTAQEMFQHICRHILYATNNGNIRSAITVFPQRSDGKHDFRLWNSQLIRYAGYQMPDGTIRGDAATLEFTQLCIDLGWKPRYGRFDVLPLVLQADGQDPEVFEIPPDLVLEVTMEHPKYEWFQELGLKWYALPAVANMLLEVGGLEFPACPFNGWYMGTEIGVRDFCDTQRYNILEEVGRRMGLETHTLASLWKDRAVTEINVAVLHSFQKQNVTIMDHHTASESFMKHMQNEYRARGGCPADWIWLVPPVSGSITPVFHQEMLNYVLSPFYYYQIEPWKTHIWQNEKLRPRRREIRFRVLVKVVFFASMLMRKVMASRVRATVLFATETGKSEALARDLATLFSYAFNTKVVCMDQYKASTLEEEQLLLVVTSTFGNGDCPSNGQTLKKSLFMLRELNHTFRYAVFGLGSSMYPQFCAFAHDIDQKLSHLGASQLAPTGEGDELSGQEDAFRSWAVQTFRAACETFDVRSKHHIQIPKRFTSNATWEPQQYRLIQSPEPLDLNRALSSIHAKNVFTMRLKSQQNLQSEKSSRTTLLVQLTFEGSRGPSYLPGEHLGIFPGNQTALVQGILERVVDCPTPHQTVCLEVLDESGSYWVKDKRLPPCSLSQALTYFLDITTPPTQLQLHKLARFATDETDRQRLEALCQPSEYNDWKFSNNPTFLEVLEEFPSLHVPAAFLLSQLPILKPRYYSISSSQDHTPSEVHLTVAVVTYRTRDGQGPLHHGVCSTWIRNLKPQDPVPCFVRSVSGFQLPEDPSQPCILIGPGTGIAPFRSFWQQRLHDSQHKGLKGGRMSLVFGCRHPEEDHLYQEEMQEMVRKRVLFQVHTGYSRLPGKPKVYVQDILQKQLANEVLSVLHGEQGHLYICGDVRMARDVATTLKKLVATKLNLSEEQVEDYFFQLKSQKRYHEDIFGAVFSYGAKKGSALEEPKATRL
Kind of assay: Tested for inhibition of mouse inducible nitric oxide synthase.

The nature of assay [2]: Selectivity is the ratio of IC50 of mouse inducible NOS and Rat brain constitutive NOS.

Nitric oxide synthase 1, sequence (P29476 whole entry): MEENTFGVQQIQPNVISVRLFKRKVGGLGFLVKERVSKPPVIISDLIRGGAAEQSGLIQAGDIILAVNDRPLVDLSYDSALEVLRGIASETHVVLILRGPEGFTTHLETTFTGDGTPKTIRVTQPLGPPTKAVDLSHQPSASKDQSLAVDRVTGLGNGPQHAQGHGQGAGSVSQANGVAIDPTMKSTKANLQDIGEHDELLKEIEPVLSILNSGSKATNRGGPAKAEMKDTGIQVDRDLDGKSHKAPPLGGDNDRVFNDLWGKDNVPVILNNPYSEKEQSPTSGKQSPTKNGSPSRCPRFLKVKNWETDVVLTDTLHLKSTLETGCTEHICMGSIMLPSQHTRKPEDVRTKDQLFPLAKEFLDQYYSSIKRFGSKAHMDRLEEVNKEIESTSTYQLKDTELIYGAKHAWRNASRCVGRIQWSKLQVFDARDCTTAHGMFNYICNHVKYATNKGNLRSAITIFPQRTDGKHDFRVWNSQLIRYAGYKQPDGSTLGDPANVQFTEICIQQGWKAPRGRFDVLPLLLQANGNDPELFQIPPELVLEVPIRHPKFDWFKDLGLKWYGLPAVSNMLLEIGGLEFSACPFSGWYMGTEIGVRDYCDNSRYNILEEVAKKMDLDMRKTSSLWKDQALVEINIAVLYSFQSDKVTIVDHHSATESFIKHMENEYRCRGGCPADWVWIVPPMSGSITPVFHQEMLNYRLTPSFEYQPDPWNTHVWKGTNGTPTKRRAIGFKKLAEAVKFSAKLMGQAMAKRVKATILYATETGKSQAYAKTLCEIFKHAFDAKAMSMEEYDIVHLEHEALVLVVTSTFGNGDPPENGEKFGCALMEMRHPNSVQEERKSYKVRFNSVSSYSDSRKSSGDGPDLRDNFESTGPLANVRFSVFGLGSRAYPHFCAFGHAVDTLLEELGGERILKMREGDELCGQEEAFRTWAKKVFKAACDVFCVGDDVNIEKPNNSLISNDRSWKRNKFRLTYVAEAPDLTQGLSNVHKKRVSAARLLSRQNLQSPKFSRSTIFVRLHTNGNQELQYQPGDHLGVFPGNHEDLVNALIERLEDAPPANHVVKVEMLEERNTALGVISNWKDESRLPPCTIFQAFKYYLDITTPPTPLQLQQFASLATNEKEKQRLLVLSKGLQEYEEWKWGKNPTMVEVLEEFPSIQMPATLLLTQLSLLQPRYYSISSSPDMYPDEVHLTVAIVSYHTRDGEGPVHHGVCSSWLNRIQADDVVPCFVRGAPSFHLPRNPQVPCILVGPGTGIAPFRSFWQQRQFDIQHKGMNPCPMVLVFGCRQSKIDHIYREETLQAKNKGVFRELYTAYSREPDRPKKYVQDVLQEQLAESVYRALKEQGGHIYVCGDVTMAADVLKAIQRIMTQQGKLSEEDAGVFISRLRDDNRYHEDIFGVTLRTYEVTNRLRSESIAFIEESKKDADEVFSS

The term IC50 denotes the concentration at which inhibition is half-maximal. As to `CC(=N)NCCCCCC(N)C(=O)O` (racemic), the IC50 stood at 808 µM against Nitric oxide synthase 1 and 73 µM in assay [1]. For the same compound, the Selectivity in assay [2] came to 11.
For `CC(=N)NCCCC[C@H](N)C(=O)O` [L-NIL] the same measures were 92 µM, 3.3 µM and 28.
As to `CC(=N)NCCC[C@H](N)C(=O)O` [L-NIO], the IC50 in assay [1] was found to be 3.9 µM.
`N=C(NCCC[C@H](N)C(=O)O)N[N+](=O)[O-]` [NITROARGININE]: the IC50 in assay [1] is 0.5 µM.
On to `CC(=N)NCCCC[C@@H](N)C(=O)O`, for which the IC50 at Nitric oxide synthase 1 was found to be 2800 µM; in assay [1], 336 µM. For the same compound, the Selectivity in assay [2] worked out at 8.
